Values quoted from earlier work as cited in patent US20180185286A1, “POROUS MATERIALS CONTAINING COMPOUNDS INCLUDING […] ACTIVE SPECIES” (NOVARTIS PHARMA AG, priority 2014, published 2018).
≈ marks a conversion by molar mass, not a printed value.

Conditions: in the absence of being incorporated within a porous material

Row | aqueous solubility | SMILES
1 | 19 µg/mL (≈ 49.4 µM) | CCOC(=O)C1=C(C)NC(C)=C(C(=O)OC)C1c1cccc(Cl)c1Cl (centres unmarked) [felodipine]
2 | 38 µg/mL (≈ 184 µM) | CC(C)Cc1ccc(C(C)C(=O)O)cc1 (centres unmarked) [ibuprofen]
3 | 2.5 µg/mL (≈ 6.99 µM) | COc1ccc2c(c1)c(CC(=O)O)c(C)n2C(=O)c1ccc(Cl)cc1 [indomethacin]
4 | 38 µg/mL (≈ 102 µM) | O=C(O)c1ccc(-n2nc(-c3ccccc3O)nc2-c2ccccc2O)cc1 [deferasirox]

Row | SMILES | aqueous solubility
5 | O=C1[C@H](CC[C@H](O)c2ccc(F)cc2)[C@@H](c2ccc(O)cc2)N1c1ccc(F)cc1 [ezetimibe] | essentially insoluble in aqueous solutions
